# From patent US20250313533A1, “QUINOLINE CARBOXYLIC ACID ESTER COMPOUND AND PREPARATION METHOD AND USE THEREOF” (priority 2019, published 2025)
# Tests used:
# [1] = test system: fruit blotch in watermelons; assay: whole plant or invertebrate; details: read-out: efficacy against fruit blotch in watermelons
# [2] = test system: pathogenic bacteria causing bacterial wilt in cassava; assay: organism not typed; format: cell-based; details: read-out: inhibitory rate
# [3] = test system: pathogenic bacteria causing fire blight in pears; assay: In vitro bactericidal activity, fire blight in pears; format: cell-based, erwinia; details: Erwinia, read-out: inhibitory rate; for inhibition at 1 ppm: dosage 1 ppm; for inhibition at 5 ppm: dosage 5 ppm
# [4] = test system: soft rot in Chinese cabbages; assay: whole plant or invertebrate; details: 48 h, read-out: efficacy against soft rot in Chinese cabbages
# [5] = test system: pathogenic bacteria causing stem rot in sweet potatoes; assay: In vitro bactericidal activity, stem rot in sweet potatoes; format: cell-based, dikia; details: read-out: inhibitory rate; for inhibition at 1 ppm: dosage 1 ppm; for inhibition at 5 ppm: dosage 5 ppm
# [6] = test system: pathogenic bacteria causing bacterial angular leaf spot in cucumbers; assay: In vitro bactericidal activity, bacterial angular leaf spot in cucumbers; format: cell-based, pseudomonas; details: read-out: inhibitory rate; for inhibition at 1 ppm: dosage 1 ppm; for inhibition at 5 ppm: dosage 5 ppm
# [7] = test system: pathogenic bacteria causing black shank in potatoes; assay: In vitro bactericidal activity, black shank in potatoes; format: cell-based; details: read-out: inhibitory rate; for inhibition at 1 ppm: dosage 1 ppm; for inhibition at 5 ppm: dosage 5 ppm
# [8] = test system: pathogenic bacteria causing fruit blotch in watermelons; assay: In vitro bactericidal activity, fruit blotch in watermelons; format: cell-based, acidovorax; details: read-out: inhibitory rate; for inhibition at 1 ppm: dosage 1 ppm; for inhibition at 5 ppm: dosage 5 ppm
# [9] = test system: pathogenic bacteria causing black rot in Chinese cabbages; assay: In vitro bactericidal activity, black rot in Chinese cabbages; format: cell-based, xanthomonas; details: Xanthomonas, read-out: inhibitory rate; for inhibition at 1 ppm: dosage 1 ppm; for inhibition at 5 ppm: dosage 5 ppm
# [10] = test system: bacterial wilt in tobacco; assay: whole plant or invertebrate; details: Nicotiana tabacum, read-out: efficacy against bacterial wilt in tobacco
# [11] = test system: indoor potted cucumber seedlings; assay: Effect of improving growth and development of crops; format: in vivo; design: Rate of growth rate increase (%): concentration or dose not given beside the values; details: versus blank control; for Rate of chlorophyll content increase (%) / Rate of leaf area increase (%): 14 days after application; for Rate of growth rate increase (%): plant height 14 days after application; for Rate of leaf area increase (%): second leaf
# Protocol: Taking indoor potted cucumber seedlings as an example, the influence of the compound disclosed herein on growth rate of plant height, chlorophyll content, leaf area, etc. of crops was mainly evaluated.
# The plant heights of plants before application and 14 days after the application were measured.
# The growth rates were calculated according to formula (1)
# The rates of the growth rate increase (%) were calculated according to formula (2)
# The longitudinal and transverse diameters (i.e., leaf length and leaf width, respectively, wherein the leaf length is the distance from the base to the tip of a leaf, and leaf width is the measured value of the upper shoulder width of the leaf) of the second leaf of plants before application and 14 days after the application were measured.
# The leaf areas were calculated according to formula (3)
# The leaf area increases were calculated according to formula (4)
# The rates of the leaf area increases were calculated according to formula (5)
# The chlorophyll contents of leaves were measured by using a chlorophyll measuring instrument (model: SPAD-520 Plus).
# The chlorophyll content increases were calculated according to formula (6)
# The rates of the chlorophyll content increases were calculated according to formula (7)
# [12] = test system: pathogenic bacteria causing bacterial blight in rice; assay: whole plant or invertebrate; format: cell-based, xanthomonas; details: read-out: inhibitory rate
# [13] = test system: cucumber seedlings; assay: Safety for plant growth after application; format: in vivo; details: dosage 200 ppm
# Method in brief: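 Indoor potted cucumber seedlings were treated with the compounds, and crop safety was judged from effects on plant height growth rate, chlorophyll content and leaf area.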
# [14] = test system: stem rot in sweet potatoes; assay: whole plant or invertebrate; details: read-out: efficacy against stem rot in sweet potatoes
# [15] = test system: pathogenic bacteria causing bacterial wilt in tobacco; assay: whole plant or invertebrate; format: cell-based, ralstonia; details: read-out: inhibitory rate
# [16] = test system: black shank in potatoes; assay: Living crops in vivo protective activity, potatoes (root irrigation); details: Solanum tuberosum, read-out: efficacy against black shank in potatoes; for pest or weed control at 5 ppm: dosage 5 ppm; for pest or weed control at 10 ppm: dosage 10 ppm
# Protocol: Root irrigation was carried out on the potatoes for tests according to the designed concentration of the agents. The dosage for each plant was 200 mL and was kept consistent (also for the control). The black shank bacteria were inoculated on the second day after the application. The results were investigated according to the disease condition.
# [17] = test system: bacterial blight in rice; assay: whole plant or invertebrate; details: Oryza sativa, read-out: efficacy against bacterial blight in rice
SMILES,pest or weed control at 5 ppm [1],pest or weed control at 10 ppm [1],inhibition at 1 ppm [2],inhibition at 5 ppm [2],inhibition at 1 ppm [3],inhibition at 5 ppm [3],pest or weed control at 5 ppm [4],pest or weed control at 10 ppm [4],inhibition at 1 ppm [5],inhibition at 5 ppm [5],inhibition at 1 ppm [6],inhibition at 5 ppm [6],inhibition at 1 ppm [7],inhibition at 5 ppm [7],inhibition at 1 ppm [8],inhibition at 5 ppm [8],inhibition at 1 ppm [9],inhibition at 5 ppm [9],pest or weed control at 5 ppm [10],pest or weed control at 10 ppm [10],further results
"O=C(OCCO)c1cn(C2CC2)c2cc(Cl)c(F)cc2c1=O [Compound 151, 2-hydroxyethyl-7-chloro-1-cyclopropyl-6-fluoro-4-oxo-1,4-dihydroquinoline-3-carboxylate]",≥ 90%,≥ 90%,≥ 90%,≥ 90%,≥ 90%,≥ 90%,≥ 90%,≥ 90%,≥ 90%,≥ 90%,≥ 90%,≥ 90%,≥ 90%,≥ 90%,≥ 90%,≥ 90%,≥ 90%,≥ 90%,≥ 90%,≥ 90%,"Rate of chlorophyll content increase (%) [11]: 15%; Rate of growth rate increase (%) [11]: 12%; Rate of leaf area increase (%) [11]: 16%; inhibition at 1 ppm [12]: ≥ 90%; inhibition at 5 ppm [12]: ≥ 90%; safety for plant growth (discoloration, necrosis, wilt, malformation) [13]: safe for plant growth; pest or weed control at 5 ppm [14]: ≥ 90%; pest or weed control at 10 ppm [14]: ≥ 90%; inhibition at 1 ppm [15]: ≥ 90%; inhibition at 5 ppm [15]: ≥ 90%; pest or weed control at 5 ppm [16]: ≥ 90%; pest or weed control at 10 ppm [16]: ≥ 90%; pest or weed control at 5 ppm [17]: ≥ 90%; pest or weed control at 10 ppm [17]: ≥ 90%"
CCOCCOC(=O)c1cn(C2CC2)c2cc(Cl)c(F)cc2c1=O [Compound 153],≥ 90%,≥ 90%,≥ 90%,≥ 90%,≥ 90%,≥ 90%,≥ 90%,≥ 90%,≥ 90%,≥ 90%,≥ 90%,≥ 90%,≥ 90%,≥ 90%,≥ 90%,≥ 90%,≥ 90%,≥ 90%,≥ 90%,≥ 90%,"Rate of chlorophyll content increase (%) [11]: 14%; Rate of growth rate increase (%) [11]: 15%; Rate of leaf area increase (%) [11]: 13%; inhibition at 1 ppm [12]: ≥ 90%; inhibition at 5 ppm [12]: ≥ 90%; safety for plant growth (discoloration, necrosis, wilt, malformation) [13]: safe for plant growth; pest or weed control at 5 ppm [14]: ≥ 90%; pest or weed control at 10 ppm [14]: ≥ 90%; inhibition at 1 ppm [15]: ≥ 90%; inhibition at 5 ppm [15]: ≥ 90%; pest or weed control at 5 ppm [16]: ≥ 90%; pest or weed control at 10 ppm [16]: ≥ 90%; pest or weed control at 5 ppm [17]: ≥ 90%; pest or weed control at 10 ppm [17]: ≥ 90%"
"O=C(OCCCO)c1cn(C2CC2)c2cc(Cl)c(F)cc2c1=O [Compound 164, 3-hydroxypropyl 7-chloro-1-cyclopropyl-6-fluoro-4-oxo-1,4-dihydroquinoline-3-carboxylate]",≥ 90%,≥ 90%,≥ 90%,≥ 90%,≥ 90%,≥ 90%,≥ 90%,≥ 90%,≥ 90%,≥ 90%,≥ 90%,≥ 90%,≥ 90%,≥ 90%,≥ 90%,≥ 90%,≥ 90%,≥ 90%,≥ 90%,≥ 90%,"Rate of chlorophyll content increase (%) [11]: 19%; Rate of growth rate increase (%) [11]: 12%; Rate of leaf area increase (%) [11]: 16%; inhibition at 1 ppm [12]: ≥ 90%; inhibition at 5 ppm [12]: ≥ 90%; safety for plant growth (discoloration, necrosis, wilt, malformation) [13]: safe for plant growth; pest or weed control at 5 ppm [14]: ≥ 90%; pest or weed control at 10 ppm [14]: ≥ 90%; inhibition at 1 ppm [15]: ≥ 90%; inhibition at 5 ppm [15]: ≥ 90%; pest or weed control at 5 ppm [16]: ≥ 90%; pest or weed control at 10 ppm [16]: ≥ 90%; pest or weed control at 5 ppm [17]: ≥ 90%; pest or weed control at 10 ppm [17]: ≥ 90%"
"COCCCOC(=O)c1cn(C2CC2)c2cc(Cl)c(F)cc2c1=O [Compound 165, 3-methoxypropyl 7-chloro-1-cyclopropyl-6-fluoro-4-oxo-1,4-dihydroquinoline-3-carboxylate]",≥ 90%,≥ 90%,≥ 90%,≥ 90%,≥ 90%,≥ 90%,≥ 90%,≥ 90%,≥ 90%,≥ 90%,≥ 90%,≥ 90%,≥ 90%,≥ 90%,≥ 90%,≥ 90%,≥ 90%,≥ 90%,≥ 90%,≥ 90%,"Rate of chlorophyll content increase (%) [11]: 16%; Rate of growth rate increase (%) [11]: 12%; Rate of leaf area increase (%) [11]: 17%; inhibition at 1 ppm [12]: ≥ 90%; inhibition at 5 ppm [12]: ≥ 90%; safety for plant growth (discoloration, necrosis, wilt, malformation) [13]: safe for plant growth; pest or weed control at 5 ppm [14]: ≥ 90%; pest or weed control at 10 ppm [14]: ≥ 90%; inhibition at 1 ppm [15]: ≥ 90%; inhibition at 5 ppm [15]: ≥ 90%; pest or weed control at 5 ppm [16]: ≥ 90%; pest or weed control at 10 ppm [16]: ≥ 90%; pest or weed control at 5 ppm [17]: ≥ 90%; pest or weed control at 10 ppm [17]: ≥ 90%"
COCCCCOC(=O)c1cn(C2CC2)c2cc(Cl)c(F)cc2c1=O [Compound 178],≥ 90%,≥ 90%,≥ 90%,≥ 90%,≥ 90%,≥ 90%,≥ 90%,≥ 90%,≥ 90%,≥ 90%,≥ 90%,≥ 90%,≥ 80%,≥ 90%,≥ 90%,≥ 90%,≥ 90%,≥ 90%,≥ 90%,≥ 90%,"Rate of chlorophyll content increase (%) [11]: 15%; Rate of growth rate increase (%) [11]: 9%; Rate of leaf area increase (%) [11]: 9%; inhibition at 1 ppm [12]: ≥ 90%; inhibition at 5 ppm [12]: ≥ 90%; safety for plant growth (discoloration, necrosis, wilt, malformation) [13]: safe for plant growth; pest or weed control at 5 ppm [14]: ≥ 90%; pest or weed control at 10 ppm [14]: ≥ 90%; inhibition at 1 ppm [15]: ≥ 90%; inhibition at 5 ppm [15]: ≥ 90%; pest or weed control at 5 ppm [16]: ≥ 80%; pest or weed control at 10 ppm [16]: ≥ 90%; pest or weed control at 5 ppm [17]: ≥ 90%; pest or weed control at 10 ppm [17]: ≥ 90%"
